Like-named read-outs stand apart in the source and are kept apart here.

The values below come from publication PMC7157554, “Anti-Trypanosomal Proteasome Inhibitors Cure Hemolymphatic and Meningoencephalic Murine Infection Models of African Trypanosomiasis” (Tropical Medicine and Infectious Disease, 2020).

Assay [1] has as its system T. brucei PSMB4^WT. The assay is described as follows: Growth inhibition of T. brucei expressing wild-type 20S proteasome β4 subunit. The settings on record: Trypanosoma brucei, read-out: T. brucei PSMB4^WT EC50. In kind it is cell-based. The method, then:
(§1) For determination of 50% growth inhibition, all compounds were dissolved in DMSO, and 200 nL of threefold serially diluted compounds were added into solid-bottom 384-well white plates (Greiner Bio-One, Kremsmunster, Austria) by an Echo 555 acoustic liquid-handling system. Forty microliters of 10^4 cells/mL of T. b. brucei parasites was added into each well, and the plates were incubated in a 5% CO2 incubator at 37 °C for 48 h. Viability of parasites were determined by measuring intracellular ATP levels, using CellTiter-Glo (CTG) luminescent cell viability reagent (Promega, Madison, Wisconsin WI, USA). The EC50 values were determined by using GraphPad Prism software. Growth inhibition assays for all clinical isolates were carried out as described earlier. All experiments had two technical replicates and three biological replicates. Appropriate statistical tests were used for evaluating significance, and mean ± SEM is represented in the tables.

Assay [2] has as its system T. brucei PSMB4^F24L. The assay is described as follows: Growth inhibition of T. brucei expressing F24L mutant 20S proteasome β4 subunit. The format is cell-based, Trypanosoma brucei. As for the experimental part: as §1
For assay [3], the system named is T. b. brucei (GVR35-VSL2). The assay is described as follows: Meningoencephalic mouse model (stage 2 HAT efficacy model, GVR35) with bioluminescence imaging. The format is in vivo. As for the experimental part: The GVR35 mouse CNS model mimics the second (meningoencephalic) stage of African trypanosomiasis. Female CD1 mice (~8 weeks old, from Charles River) were injected intraperitoneally (i.p.) with 3 × 10^4 T. b. brucei (GVR35-VSL2) bloodstream-form parasites. As controls, a group of three untreated mice and another group of three mice treated with diminazene aceturate (DA) were included. […] Mice treated with DA usually relapse after 42 days post-infection. […]
Blood parasitemia was quantified weekly from day 21/22, by microscopy of blood from the tail vein. Mice were imaged for bioluminescence using an in vivo imaging system (IVIS) prior to treatment on day 21/22, and weekly after treatment, as described previously. Briefly, mice, in groups of three, were injected i.p. with 150 mg of D-luciferin (Promega) per kilogram body weight in PBS and imaged after 10 min, using an IVIS Spectrum (PerkinElmer, Waltham, Massachusetts MA, USA). Living Image Software (PerkinElmer) was used for acquisition and analysis of bioluminescence imaging data. Bioluminescence in the same rectangular region of interest (ROI) on whole-body mouse images was quantified and is shown in total flux (photons per second). Images were cropped to the ROIs and composites of images from representative mice are shown. Uncured mice were euthanized within 1 or 2 days of parasite detection in the blood. Cured mice were euthanized between day 92 and 101 post-infection. All the results from the individual experiments were reported as number of mice cured over total number of mice treated. A Kaplan–Meier plot was used for representing the number of mice cured at different treatment doses.

Assay [4] relates to T. b. gambiense. The assay is described as follows: Growth inhibition of T. b. gambiense strains. As to conditions: Trypanosoma brucei, mean ± SD. The format is cell-based.
The subject of assay [5] is T. b. rhodesiense. The assay is described as follows: Growth inhibition of T. b. rhodesiense strains. In kind it is cell-based. As to conditions: Trypanosoma brucei, mean ± SD.
The test system of assay [6] is T. b. brucei. The assay is described as follows: Growth inhibition of T. b. brucei strains BS221, BS221 (P2 KO), STIB950. In kind it is cell-based. The settings on record: Trypanosoma brucei, mean ± SD. As for the experimental part: The T. b. brucei strain Lister 427 (bloodstream form) parasites were continuously grown in complete HMI-9 medium supplemented with 10% Serum Plus and 10% heat-inactivated fetal bovine serum (FBS). All other parasite strains were cultured as described elsewhere.
as §1, with “Appropriate statistical tests were used for evaluating significance, and mean ± SEM is represented in the tables.” left out

For assay [7] the following is noted: stage 2 HAT mouse model; cited from earlier work.

Consider `CC(C)C[C@H](NC(=O)[C@H](Cc1ccccc1)NC(=O)c1cnccn1)B(O)O` [Bortezomib, reference compound], for which the EC50 in assay [1] amounted to 0.94 ± 0.05 nM; in assay [2] (Trypanosoma brucei, read-out: T. brucei PSMB4^F24L EC50) it was 1.1 ± 0.26 nM. In assay [2], the “Shift in growth inhibition concentration, F24L mutant vs wild-type” value was “equipotent”.
In the case of `N=C(N)c1ccc(/N=N/Nc2ccc(C(=N)N)cc2)cc1` [Diminazene, diminazene aceturate, reference compound], in assay [3] (40 mg/kg QD), the “% Cured” value was 0% and the “Mean Day of Relapse” value was determined as 42 days post infection. The “Mice Cured/Total” value in assay [3] (40 mg/kg QD (control compound lacking brain penetration)) is 0/3.
Consider `Nc1nc(N)nc(Nc2ccc([As]3SCC(CO)S3)cc2)n1` (stereo not shown) [Melarsoprol, reference compound], for which the EC50 in assay [4] (GAMBIENSE / STIB930, read-out: T. b. gambiense EC50, strain STIB930) amounted to 7.1 ± 2.7 nM; in assay [4] (GAMBIENSE, read-out: T. b. gambiense EC50, strain K048) it was 10.2 ± 1.9 nM; in assay [4] (GAMBIENSE, read-out: T. b. gambiense EC50, strain R130) it was 7.7 ± 3.1 nM; in assay [5] (RHODESIENSE / STIB900, read-out: T. b. rhodesiense EC50, strain STIB900), 3.9 ± 2 nM; in assay [5] (RHODESIENSE / STIB900, read-out: T. b. rhodesiense EC50, strain STIB900 Mel^R (melarsoprol-resistant)), 95.5 ± 24 nM; in assay [5] (RHODESIENSE / STIB900, read-out: T. b. rhodesiense EC50, strain STIB900 Pent^R (pentamidine-resistant)), 46.8 ± 19 nM. Further, the EC50 in assay [6] (STIB950, read-out: T. b. brucei EC50, strain STIB950) amounted to 16.9 ± 8.8 nM; in assay [6] (read-out: T. b. brucei EC50, strain BS221 (P2 KO)) it was 37.7 ± 14.8 nM; in assay [6] (read-out: T. b. brucei EC50, strain BS221), 4.7 ± 1.8 nM.
For `N=C(N)c1ccc(OCCCCCOc2ccc(C(=N)N)cc2)cc1` [Pentamidine, reference compound], the EC50 stood at 1.4 ± 0.9 nM in assay [4] (GAMBIENSE / STIB930, strain STIB930, read-out: T. b. gambiense EC50); 33.9 ± 16 nM in assay [4] (GAMBIENSE, strain K048, read-out: T. b. gambiense EC50); 13.5 ± 4 nM in assay [4] (GAMBIENSE, strain R130, read-out: T. b. gambiense EC50); 217 ± 86 nM in assay [5] (RHODESIENSE / STIB900, strain STIB900 Mel^R (melarsoprol-resistant), read-out: T. b. rhodesiense EC50); 203 ± 54 nM in assay [5] (RHODESIENSE / STIB900, strain STIB900 Pent^R (pentamidine-resistant), read-out: T. b. rhodesiense EC50); 0.5 ± 0.2 nM in assay [6] (STIB950, strain STIB950, read-out: T. b. brucei EC50). In addition, the EC50 in assay [6] (strain BS221 (P2 KO), read-out: T. b. brucei EC50) stood at 3.1 ± 0.4 nM; in assay [6] (strain BS221, read-out: T. b. brucei EC50), 0.3 ± 0.1 nM.
As for `CC1(C)OB(O)c2cc(NC(=O)c3ccc(F)cc3C(F)(F)F)ccc21` [acoziborole], the Curative dose in assay [7] was 25 mg/kg.
As to `CSc1ccc(OCc2ncc([N+](=O)[O-])n2C)cc1` [fexinidazole], the Curative dose in assay [7] is given as 200 mg/kg.
